Here are results for 17 compounds from patent US10206394B2, “Herbicidal compounds” (Syngenta Participations AG, priority 2014, dated 2019).

What all share (assay): Glasshouse assay for herbicidal activity (pre- and post-emergence), percentage phytotoxicity
What all share (format): in vivo

One test has as its system Lolium perenne (LOLPE). The conditions noted are these: Lolium perenne, rate 250 g/ha. Put shortly: (§1)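 Visually rated damage, 0–100%. PRE spray 1 d after sowing, scored 20 DAA; POST spray ~12 d, scored 15 DAA. Glasshouse at 65% humidity, 16 h day.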
The test system of test [1] is Alopecurus myosuroides (ALOMY). Conditions: Alopecurus myosuroides, rate 250 g/ha. Put shortly:
as §1

Another test relates to Avena fatua (AVEFA). The conditions noted are these: Avena fatua, rate 250 g/ha. Put shortly: as §1
Test [2] deals with Echinochloa crus-galli (ECHCG). The conditions noted are these: Echinochloa crus-galli, rate 250 g/ha. The gist of the method:
as §1

The mark [3] stands for this setting: post-emergence, 360 h, POST-emergence, visual score 15 DAA (100%=total damage, 0%=no damage), read-out: Post-emergence herbicidal activity (percentage phytotoxicity) LOLPE POST.
The mark [4] stands for this setting: pre-emergence, 480 h, PRE-emergence, visual score 20 DAA (100%=total damage, 0%=no damage), read-out: Pre-emergence herbicidal activity (percentage phytotoxicity) LOLPE PRE.
[5] abbreviates: post-emergence, 360 h, POST-emergence, visual score 15 DAA (100%=total damage, 0%=no damage), read-out: Post-emergence herbicidal activity (percentage phytotoxicity) ALOMY POST.
Setting [6] is: pre-emergence, 480 h, PRE-emergence, visual score 20 DAA (100%=total damage, 0%=no damage), read-out: Pre-emergence herbicidal activity (percentage phytotoxicity) ALOMY PRE.
The mark [7] stands for this setting: post-emergence, 360 h, POST-emergence, visual score 15 DAA (100%=total damage, 0%=no damage), read-out: Post-emergence herbicidal activity (percentage phytotoxicity) AVEFA POST.
The mark [8] stands for this setting: pre-emergence, 480 h, PRE-emergence, visual score 20 DAA (100%=total damage, 0%=no damage), read-out: Pre-emergence herbicidal activity (percentage phytotoxicity) AVEFA PRE.
Where [9] appears, read: post-emergence, 360 h, POST-emergence, visual score 15 DAA (100%=total damage, 0%=no damage), read-out: Post-emergence herbicidal activity (percentage phytotoxicity) ECHCG POST.
The mark [10] stands for this setting: pre-emergence, 480 h, PRE-emergence, visual score 20 DAA (100%=total damage, 0%=no damage), read-out: Pre-emergence herbicidal activity (percentage phytotoxicity) ECHCG PRE.

Like-named read-outs stand apart in the source and are kept apart here.

As for `C/C=C/c1cc(C)c(C2C(=O)CC(CC(=O)N3CCOCC3)C2=O)c(C)c1` (stereo not shown) [Compound B172], the pest or weed control at 250 g/ha with Lolium perenne (LOLPE) (setting [3]) amounted to 90%; in the test with Lolium perenne (LOLPE) (setting [4]), 100%; in test [1] (setting [5]), 90%; in test [1] (setting [6]), 80%; in the test with Avena fatua (AVEFA) (setting [7]), 90%; in the test with Avena fatua (AVEFA) (setting [8]) it was 80%. The pest or weed control at 250 g/ha in test [2] (setting [9]) and in test [2] (setting [10]) was 100% throughout.
Take `C/C=C/c1cc(C)c(C2C(=O)CC(CC(=O)NC(C)(C)C)C2=O)c(C)c1` (stereo not shown) [Compound B173]: the pest or weed control at 250 g/ha was found to be 80% in the test on Lolium perenne (LOLPE) (setting [3]); 90% in the test with Lolium perenne (LOLPE) (setting [4]); 90% in test [1] (setting [5]); 90% in test [1] (setting [6]); 80% in the test on Avena fatua (AVEFA) (setting [7]); 60% in the test with Avena fatua (AVEFA) (setting [8]). The pest or weed control at 250 g/ha in test [2] (setting [9]) and in test [2] (setting [10]) was 90% throughout.
`C#CCNC(=O)CC1CC(=O)C(c2c(C)cc(/C=C/C)cc2C)C1=O` (stereo not shown) [Compound B174]: the pest or weed control at 250 g/ha with Lolium perenne (LOLPE) (setting [3]) was determined as 90%; with Lolium perenne (LOLPE) (setting [4]), 100%; in test [1] (setting [5]), 100%; in test [1] (setting [6]), 100%; in the test with Avena fatua (AVEFA) (setting [7]), 90%; in the test on Avena fatua (AVEFA) (setting [8]), 70%. Moreover, the pest or weed control at 250 g/ha in test [2] (setting [9]) was determined as 100%; in test [2] (setting [10]), 90%.
For the compound `C/C=C/c1cc(C)c(C2C(=O)CC(CC(N)=O)C2=O)c(C)c1` (stereo not shown) [Compound B175], the pest or weed control at 250 g/ha stood at 80% in the test on Lolium perenne (LOLPE) (setting [3]); 100% in the test on Lolium perenne (LOLPE) (setting [4]); 90% in test [1] (setting [5]); 100% in test [1] (setting [6]); 100% in the test on Avena fatua (AVEFA) (setting [7]); 90% in the test on Avena fatua (AVEFA) (setting [8]). Moreover, the pest or weed control at 250 g/ha amounted to 90% in test [2] (setting [9]) and 100% in test [2] (setting [10]).
For `Cc1cc(Br)cc(C)c1C1C(=O)CC(CC(=O)NC/C=C/Cl)C1=O` (stereo not shown) [Compound B176], the pest or weed control at 250 g/ha is 80% in the test on Lolium perenne (LOLPE) (setting [3]); 90% with Lolium perenne (LOLPE) (setting [4]); 80% in test [1] (setting [5]); 90% in test [1] (setting [6]); 80% with Avena fatua (AVEFA) (setting [7]); 60% in the test with Avena fatua (AVEFA) (setting [8]). Moreover, the pest or weed control at 250 g/ha in test [2] (setting [9]) and in test [2] (setting [10]) was 80% throughout.
Turning to `C/C=C/CNC(=O)CC1CC(=O)C(c2c(C)cc(Br)cc2C)C1=O` (stereo not shown) [Compound B177], the pest or weed control at 250 g/ha in the test with Lolium perenne (LOLPE) (setting [3]) came out at 80%; in the test on Lolium perenne (LOLPE) (setting [4]), 90%; in test [1] (setting [5]) it was 80%; in test [1] (setting [6]), 90%; with Avena fatua (AVEFA) (setting [7]) it was 80%; in the test on Avena fatua (AVEFA) (setting [8]) it was 30%. Moreover, the pest or weed control at 250 g/ha in test [2] (setting [9]) and in test [2] (setting [10]) was 90% each time.
With `Cc1cc(-c2ncc(Cl)cc2F)cc(C)c1C1C(=O)CC(CC(=O)NCC(C)(C)C)C1=O` (stereo not shown) [Compound B178], the pest or weed control at 250 g/ha in the test with Lolium perenne (LOLPE) (setting [3]) is 100%; in the test on Lolium perenne (LOLPE) (setting [4]), 100%; in test [1] (setting [5]), 100%; in test [1] (setting [6]), 100%; in the test on Avena fatua (AVEFA) (setting [7]), 90%; in the test with Avena fatua (AVEFA) (setting [8]), 90%. Also, the pest or weed control at 250 g/ha in test [2] (setting [9]) and in test [2] (setting [10]) was 100% each time.
On to `C=CC(C)NC(=O)CC1CC(=O)C(c2c(C)cc(C)cc2C)C1=O` (stereo not shown) [Compound B179], for which the pest or weed control at 250 g/ha in the test on Lolium perenne (LOLPE) (setting [3]) is 90%; with Lolium perenne (LOLPE) (setting [4]) it was 100%; in test [1] (setting [5]), 90%; in test [1] (setting [6]), 90%; with Avena fatua (AVEFA) (setting [7]) it was 80%; with Avena fatua (AVEFA) (setting [8]), 70%. Moreover, the pest or weed control at 250 g/ha in test [2] (setting [9]) and in test [2] (setting [10]) was 100% in each case.
In the case of `COCC(C)(C)NC(=O)CC1CC(=O)C(c2c(C)cc(C)cc2C)C1=O` (stereo not shown) [Compound B180], the pest or weed control at 250 g/ha in the test with Lolium perenne (LOLPE) (setting [3]) was 80%; in the test with Lolium perenne (LOLPE) (setting [4]), 90%; in test [1] (setting [5]), 90%; in test [1] (setting [6]), 90%; in the test on Avena fatua (AVEFA) (setting [7]), 90%; with Avena fatua (AVEFA) (setting [8]), 60%. The pest or weed control at 250 g/ha in test [2] (setting [9]) and in test [2] (setting [10]) was 90% each time.
On to `Cc1cc(-c2ncc(F)cc2F)cc(C)c1C1C(=O)CC(CC(=O)NCc2ccccc2)C1=O` (stereo not shown) [Compound B181], for which the pest or weed control at 250 g/ha in the test on Lolium perenne (LOLPE) (setting [3]) came out at 100%; with Lolium perenne (LOLPE) (setting [4]) it was 100%; in test [1] (setting [5]) it was 100%; in test [1] (setting [6]) it was 70%; with Avena fatua (AVEFA) (setting [7]), 100%; in the test on Avena fatua (AVEFA) (setting [8]), 70%. The pest or weed control at 250 g/ha in test [2] (setting [9]) and in test [2] (setting [10]) was 100% in each case.
In the case of `CC#Cc1cc(C)c(C2C(=O)CC(CC(=O)NCc3cccc(Cl)c3)C2=O)c(C)c1` (stereo not shown) [Compound B182], the pest or weed control at 250 g/ha was found to be 100% in the test on Lolium perenne (LOLPE) (setting [3]); 100% in the test with Lolium perenne (LOLPE) (setting [4]); 100% in test [1] (setting [5]); 100% in test [1] (setting [6]); 100% in the test on Avena fatua (AVEFA) (setting [7]); 90% in the test on Avena fatua (AVEFA) (setting [8]). For the same compound, the pest or weed control at 250 g/ha in test [2] (setting [9]) and in test [2] (setting [10]) was 100% each time.
Take `CC#Cc1cc(C)c(C2C(=O)CC(CC(=O)NCc3cccc(F)c3)C2=O)c(C)c1` (stereo not shown) [Compound B183]: the pest or weed control at 250 g/ha with Lolium perenne (LOLPE) (setting [3]) turned out to be 90%; in the test with Lolium perenne (LOLPE) (setting [4]), 100%; in test [1] (setting [5]), 100%; in test [1] (setting [6]) it was 100%; in the test on Avena fatua (AVEFA) (setting [7]) it was 100%; with Avena fatua (AVEFA) (setting [8]), 90%. Also, the pest or weed control at 250 g/ha in test [2] (setting [9]) and in test [2] (setting [10]) was 100% each time.
On to `CC#Cc1cc(C)c(C2C(=O)CC(CC(=O)NCc3ccc(OC)cc3)C2=O)c(C)c1` (stereo not shown) [Compound B184], for which the pest or weed control at 250 g/ha was determined as 90% in the test on Lolium perenne (LOLPE) (setting [3]); 100% in the test with Lolium perenne (LOLPE) (setting [4]); 90% in test [1] (setting [5]); 90% in test [1] (setting [6]); 90% in the test on Avena fatua (AVEFA) (setting [7]); 90% with Avena fatua (AVEFA) (setting [8]). The pest or weed control at 250 g/ha in test [2] (setting [9]) and in test [2] (setting [10]) was 100% throughout.
Regarding `CC#Cc1cc(C)c(C2C(=O)CC(CC(=O)NCc3ccccc3)C2=O)c(C)c1` (stereo not shown) [Compound B185], the pest or weed control at 250 g/ha was 100% in the test on Lolium perenne (LOLPE) (setting [3]); 70% with Lolium perenne (LOLPE) (setting [4]); 100% in test [1] (setting [5]); 80% in test [1] (setting [6]); 100% in the test with Avena fatua (AVEFA) (setting [7]); 60% with Avena fatua (AVEFA) (setting [8]). The pest or weed control at 250 g/ha in test [2] (setting [9]) and in test [2] (setting [10]) was 100% each time.
Regarding `CC#Cc1cc(C)c(C2C(=O)CC(CC(=O)NCc3ccc(C#N)cc3)C2=O)c(C)c1` (stereo not shown) [Compound B186], the pest or weed control at 250 g/ha was determined as 90% in the test on Lolium perenne (LOLPE) (setting [3]); 90% with Lolium perenne (LOLPE) (setting [4]); 90% in test [1] (setting [5]); 90% in test [1] (setting [6]); 90% with Avena fatua (AVEFA) (setting [7]); 100% in the test on Avena fatua (AVEFA) (setting [8]). In addition, the pest or weed control at 250 g/ha in test [2] (setting [9]) and in test [2] (setting [10]) was 100% each time.
For the compound `C/C=C/c1cc(C)c(C2C(=O)CC(CC(=O)NCc3cccc(Cl)c3)C2=O)c(CC)c1` (stereo not shown) [Compound B187], the pest or weed control at 250 g/ha worked out at 90% in the test with Lolium perenne (LOLPE) (setting [3]); 80% in the test with Lolium perenne (LOLPE) (setting [4]); 70% in test [1] (setting [5]); 70% in test [1] (setting [6]); 70% in the test with Avena fatua (AVEFA) (setting [7]); 10% in the test with Avena fatua (AVEFA) (setting [8]). Further, the pest or weed control at 250 g/ha in test [2] (setting [9]) stood at 100%; in test [2] (setting [10]) it was 80%.
Turning to `C/C=C/c1cc(C)c(C2C(=O)CC(CC(=O)NCc3cccc(F)c3)C2=O)c(CC)c1` (stereo not shown) [Compound B188], the pest or weed control at 250 g/ha in the test with Lolium perenne (LOLPE) (setting [3]) came to 90%; in the test on Lolium perenne (LOLPE) (setting [4]), 80%; in test [1] (setting [5]) it was 80%; in test [1] (setting [6]) it was 60%; in the test on Avena fatua (AVEFA) (setting [7]) it was 100%; in the test on Avena fatua (AVEFA) (setting [8]), 40%. In addition, the pest or weed control at 250 g/ha is 100% in test [2] (setting [9]) and 80% in test [2] (setting [10]).
